Measured values as given in patent publication US20160215031A1, “METHOD OF TREATING DISORDERS REQUIRING DESTRUCTION OR REMOVAL OF CELLS” (Nymox Pharnaceutical Corporation, priority 2015, published 2016).
Marks after values point to notes of the source that are not given here.

Assays:
patients with BPH [1] = test: Intraprostatic injection in patients with BPH: proportion of patients worsening by IPSS; format: in vivo, men; parameters: decrease in the proportion of patients worsening over time, compared to the control: concentration or dose not given beside the values
Description: (§1) In a study of 978 men, patients with BPH were given an intraprostatic injection of either a) DRUG in phosphate buffered saline pH 7.2 (“PBS”) or b) PBS alone, under double-blind conditions by a urologist in an office setting under ultrasound guidance. Each patient was followed for one year or longer with regular physical examinations, laboratory tests, and evaluations of symptoms. Symptomatic evaluation was measured by the International Prostate Symptom Score (IPSS) which is a quantitative scale used to gauge prostatic symptomatic improvement or worsening. The IPSS quantifies the following: 1) incomplete bladder emptying after urination; 2) frequent urination; 3) stopping and starting during urination; 4) urgent need to urinate; 5) weakness of urinary stream; 6) need to push or strain during urination; 7) need to urinate after going to sleep at night (nocturia). The difference from baseline IPSS was compared in patients who were given DRUG vs patients who received PBS alone. Patients who had no previous history of conventional drug treatment (“treatment naïve”) were compared to patients who had previously failed on other conventional approved drugs such as alpha blockers or 5-alpha reductase inhibitors.
Patients with BPH were given an intraprostatic injection of either a) DRUG in phosphate buffered saline pH 7.2 (“PBS”) or b) PBS alone, under double-blind conditions by a urologist in an office setting under ultrasound guidance. Each patient was followed for one year with regular physical examinations, laboratory tests, and evaluations of symptoms. Symptomatic evaluation was measured by the International Prostate Symptom Score (IPSS) which is a quantitative scale used to gauge prostatic symptomatic improvement or worsening. The IPSS quantifies the following: 1) incomplete bladder emptying after urination; 2) frequent urination; 3) stopping and starting during urination; 4) urgent need to urinate; 5) weakness of urinary stream; 6) need to push or strain during urination; 7) need to urinate after going to sleep at night (nocturia). The difference from baseline IPSS was compared in patients who were given DRUG vs patients who received PBS alone. Previous treatment naive patients who had BPH history <10 years were compared to patients with previous treatment failure and to patients with BPH history >=10 years.

patients with BPH [2] = test: Intraprostatic injection in patients with BPH: difference from baseline International Prostate Symptom Score (Mean IPSS Improvement); format: in vivo, men
Description: as §1
Patients with BPH were given an intraprostatic injection of either a) DRUG in phosphate buffered saline pH 7.2 (“PBS”) or b) PBS alone, under double-blind conditions by a urologist in an office setting under ultrasound guidance. Each patient was followed for one year or longer with regular physical examinations, laboratory tests, and evaluations of symptoms. Symptomatic evaluation was measured by the International Prostate Symptom Score (IPSS) which is a quantitative scale used to gauge prostatic symptomatic improvement or worsening. The IPSS quantifies the following: 1) incomplete bladder emptying after urination; 2) frequent urination; 3) stopping and starting during urination; 4) urgent need to urinate; 5) weakness of urinary stream; 6) need to push or strain during urination; 7) need to urinate after going to sleep at night (nocturia). The difference from baseline IPSS was compared in patients who were given DRUG vs patients who received PBS alone. Patients who had both a) no previous history of conventional drug treatment (“treatment naïve”) and b) their BPH symptoms for <10 years, were compared to patients who had either a) previously failed on other conventional approved drugs such as alpha blockers or 5-alpha reductase inhibitors or b) had their BPH symptoms for >=10 years.
In a study of 978 men, patients with BPH were given an intraprostatic injection of either a) DRUG in phosphate buffered saline pH 7.2 (“PBS”) or b) PBS alone, under double-blind conditions by a urologist in an office setting under ultrasound guidance. Each patient was followed for one year or longer with regular physical examinations, laboratory tests, and evaluations of symptoms. Symptomatic evaluation was measured by the International Prostate Symptom Score (IPSS) which is a quantitative scale used to gauge prostatic symptomatic improvement or worsening. The IPSS quantifies the following: 1) incomplete bladder emptying after urination; 2) frequent urination; 3) stopping and starting during urination; 4) urgent need to urinate; 5) weakness of urinary stream; 6) need to push or strain during urination; 7) need to urinate after going to sleep at night (nocturia). The difference from baseline IPSS at an average of 22 months after treatment was compared in patients who were given DRUG vs patients who received PBS alone. Patients who were followed for only 12 months were imputed a change from 12 months onward equal to the mean of their group. Patients who had no previous history of conventional drug treatment (“treatment naïve”) were compared to patients who had previously failed on other conventional approved drugs such as alpha blockers or 5-alpha reductase inhibitors. […]

## DRUG: NTP peptide given by intraprostatic injection in PBS pH 7.2; sequence not stated in the examples, probably SEQ ID NO. 66 (IDQQVLSRIKLEIKRCL)
Patients with BPH [1]; 12 months (Example 6)
  improvement in proportion of patients worsening, treatment naive compared to treatment failure patients: 4.15 fold
  reduction of the proportion of patients worsening, treatment naive compared to treatment failure patients: ~420%
Patients with BPH [1]; IPSS >0 at 12 months, treatment naive
  Proportion of patients worsening: 0.097*
Patients with BPH [1]; IPSS >0 at one year (Example 7)
  decrease in the proportion of patients worsening over time, treatment naive compared to treatment failure patients: about 55.6%
Patients with BPH [1]; IPSS >0 at one year, BPH history ≧10 years
  Proportion of patients worsening: .20
Patients with BPH [1]; IPSS >0 at one year, treatment naive and BPH symptoms <10 years
  Proportion of patients worsening: .08
Patients with BPH [1]; IPSS >1 at one year (Example 7)
  decrease in the proportion of patients worsening over time, treatment naive compared to treatment failure patients: ~50%
Patients with BPH [1]; IPSS >1 at one year, BPH history ≧10 years
  Proportion of patients worsening: .13
Patients with BPH [1]; IPSS >1 at one year, treatment failure
  Proportion of patients worsening: .12
Patients with BPH [1]; IPSS >1 at one year, treatment naive and BPH symptoms <10 years
  Proportion of patients worsening: .06
Patients with BPH [1]; IPSS >2 at one year (Example 7)
  decrease in the proportion of patients worsening over time, treatment naive compared to treatment failure patients: ~50%
Patients with BPH [1]; IPSS >2 at one year, BPH history ≧10 years
  Proportion of patients worsening: .10
Patients with BPH [1]; IPSS >2 at one year, treatment failure
  Proportion of patients worsening: .08
Patients with BPH [1]; IPSS >2 at one year, treatment naive and BPH symptoms <10 years
  Proportion of patients worsening: .04***
Patients with BPH [1]; history of BPH for more than 10 years, IPSS >0 at one year (Example 7)
  decrease in the proportion of patients worsening over time, compared to the control: about 4.7%
Patients with BPH [1]; history of BPH for more than 10 years, IPSS >1 at one year (Example 7)
  decrease in the proportion of patients worsening over time, compared to the control: ~18.8%
Patients with BPH [1]; history of BPH for more than 10 years, IPSS >2 at one year (Example 7)
  decrease in the proportion of patients worsening over time, compared to the control: ~16.7%
Patients with BPH [1]; naive patients <10 years, IPSS >0 at one year (Example 7)
  decrease in the proportion of patients worsening over time, compared to the control: about 61.9%
Patients with BPH [1]; naive patients <10 years, IPSS >1 at one year (Example 7)
  decrease in the proportion of patients worsening over time, compared to the control: ~62.5%
Patients with BPH [1]; naive patients <10 years, IPSS >2 at one year (Example 7)
  decrease in the proportion of patients worsening over time, compared to the control: ~66.7%
Patients with BPH [1]; naive patients, IPSS >0 at 12 months (Example 6)
  decrease in the proportion of patients worsening over time, compared to the control: about 51.5%
Patients with BPH [1]; treatment failure patients, IPSS >0 at 12 months (Example 6)
  decrease in the proportion of patients worsening over time, compared to the control: about 10%
Patients with BPH [1]; treatment failure patients, IPSS >0 at one year (Example 7)
  decrease in the proportion of patients worsening over time, compared to the control: about 14.3%
Patients with BPH [1]; treatment failure patients, IPSS >1 at one year (Example 7)
  decrease in the proportion of patients worsening over time, compared to the control: ~25%
Patients with BPH [1]; treatment failure patients, IPSS >2 at one year (Example 7)
  decrease in the proportion of patients worsening over time, compared to the control: ~33.3%
Patients with BPH [2]; 12 months (Example 5)
  improvement of patients symptomatic for less than 10 years compared to patients symptomatic for more than 10 years: about 40.9%
Patients with BPH [2]; 90 days (Example 1)
  improvement in treatment naive patients compared to the improvement found in treatment failure patients: ~1,700%
  increase in treatment naive patients compared to the improvement found in treatment failure patients: 16.7 fold
Patients with BPH [2]; duration of BPH symptoms <10 years, 12 months after treatment
  Mean IPSS Improvement: 6.2*
Patients with BPH [2]; duration of BPH symptoms ≧10 years, 12 months after treatment
  Mean IPSS Improvement: 4.4
Patients with BPH [2]; naive <10 years vs previously treated with symptoms for more than 10 years, 22 months (Example 4)
  improvement compared to previously treated patients receiving the same drug: about 61.7%
Patients with BPH [2]; naive <10 years vs previously treated with symptoms for more than 10 years, 90 days (Example 2)
  improvement compared to previously treated patients receiving the same drug: about 39.7%
Patients with BPH [2]; naive <10 years vs previously treated, worded 'symptoms for less than 10 years', 22 months (Example 4)
  improvement compared to previously treated patients receiving the same drug: 48.6%
Patients with BPH [2]; naive <10 years vs previously treated, worded 'symptoms for less than 10 years', 90 days (Example 2)
  improvement compared to previously treated patients receiving the same drug: 35.4%
Patients with BPH [2]; naive patients vs PBS, 22 months (Example 3)
  Mean IPSS Improvement when compared to the control: about 52.9%
Patients with BPH [2]; naive patients vs PBS, 90 days (Example 1)
  Mean IPSS Improvement when compared to the control: about 26.5%
Patients with BPH [2]; naive patients, BPH symptoms <10 years, vs PBS, after 22 months (Example 4)
  Mean IPSS Improvement when compared to the control: about 61.7%
Patients with BPH [2]; no previous treatment (treatment naive), 90 days after treatment
  Mean IPSS Improvement: 8.6*
Patients with BPH [2]; previous BPH treatment (treatment failure), 90 days after treatment
  Mean IPSS Improvement: 6.5
Patients with BPH [2]; treatment failure and duration of BPH symptoms ≧10 years, 22 months after treatment
  Mean IPSS Improvement: 3.4
Patients with BPH [2]; treatment failure and duration of BPH symptoms ≧10 years, 90 days after treatment
  Mean IPSS Improvement: 6.3
Patients with BPH [2]; treatment failure patients vs PBS, 90 days (Example 1)
  Mean IPSS Improvement when compared to the control: about 1.5%
Patients with BPH [2]; treatment failure, 22 months after treatment
  Mean IPSS Improvement: 3.7
Patients with BPH [2]; treatment naive and duration of BPH symptoms <10 years, 22 months after treatment
  Mean IPSS Improvement: 5.5*
Patients with BPH [2]; treatment naive and duration of BPH symptoms <10 years, 90 days after treatment
  Mean IPSS Improvement: 8.8*
Patients with BPH [2]; treatment naive, 22 months after treatment
  Mean IPSS Improvement: 5.2*
